Assay [1] has as its target Casein kinase I isoform delta (Homo sapiens) (UniProt P48730). The experiment in a line: Residual activity of CK1delta at 1 uM by microplate scintillation counting.
The target in assay [2] is Ephrin type-A receptor 4 (Homo sapiens) (UniProt P54764). The assay is described as follows: Residual activity of EPHA4 at 0.1 uM by microplate scintillation counting.
Assay [3] concerns the target NT-3 growth factor receptor (Homo sapiens) (UniProt Q16288). The assay is described as follows: Residual activity of TRK-C at 10 uM by microplate scintillation counting.
The test system of assay [4] is Epidermal growth factor receptor (Homo sapiens), P00533 [T790M]. The experiment in a line: Residual activity of EGFR T790M mutant at 1 uM by microplate scintillation counting.
The target in assay [5] is Cyclin-dependent kinase 16 (Homo sapiens) (UniProt Q00536). The experiment in a line: Residual activity of PCTAIRE1 at 0.1 uM by microplate scintillation counting.
Sequence of Cyclin-dependent kinase 16 (Homo sapiens) (Q00536 whole entry): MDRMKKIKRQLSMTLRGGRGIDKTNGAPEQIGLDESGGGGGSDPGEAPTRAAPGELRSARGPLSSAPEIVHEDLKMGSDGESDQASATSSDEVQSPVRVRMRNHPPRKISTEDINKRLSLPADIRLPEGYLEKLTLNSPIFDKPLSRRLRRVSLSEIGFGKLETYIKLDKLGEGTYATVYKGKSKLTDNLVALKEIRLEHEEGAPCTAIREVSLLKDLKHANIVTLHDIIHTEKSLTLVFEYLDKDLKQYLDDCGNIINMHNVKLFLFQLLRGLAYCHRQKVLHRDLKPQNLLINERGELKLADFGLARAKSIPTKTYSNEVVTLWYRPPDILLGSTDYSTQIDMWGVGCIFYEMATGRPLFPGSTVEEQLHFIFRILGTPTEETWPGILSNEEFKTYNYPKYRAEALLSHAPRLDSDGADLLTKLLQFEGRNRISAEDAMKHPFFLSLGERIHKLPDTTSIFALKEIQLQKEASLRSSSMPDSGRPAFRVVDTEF
Assay [6] addresses Receptor-interacting serine/threonine-protein kinase 2 (Homo sapiens) (UniProt O43353). The assay is described as follows: Residual activity of RIPK2 at 0.1 uM by microplate scintillation counting.
In assay [7] the target is 3-phosphoinositide-dependent protein kinase 1 (Homo sapiens) (UniProt O15530). The assay is described as follows: Residual activity of PDK1 at 0.1 uM by microplate scintillation counting.
Sequence of 3-phosphoinositide-dependent protein kinase 1 (Homo sapiens) (O15530 whole entry, looked up): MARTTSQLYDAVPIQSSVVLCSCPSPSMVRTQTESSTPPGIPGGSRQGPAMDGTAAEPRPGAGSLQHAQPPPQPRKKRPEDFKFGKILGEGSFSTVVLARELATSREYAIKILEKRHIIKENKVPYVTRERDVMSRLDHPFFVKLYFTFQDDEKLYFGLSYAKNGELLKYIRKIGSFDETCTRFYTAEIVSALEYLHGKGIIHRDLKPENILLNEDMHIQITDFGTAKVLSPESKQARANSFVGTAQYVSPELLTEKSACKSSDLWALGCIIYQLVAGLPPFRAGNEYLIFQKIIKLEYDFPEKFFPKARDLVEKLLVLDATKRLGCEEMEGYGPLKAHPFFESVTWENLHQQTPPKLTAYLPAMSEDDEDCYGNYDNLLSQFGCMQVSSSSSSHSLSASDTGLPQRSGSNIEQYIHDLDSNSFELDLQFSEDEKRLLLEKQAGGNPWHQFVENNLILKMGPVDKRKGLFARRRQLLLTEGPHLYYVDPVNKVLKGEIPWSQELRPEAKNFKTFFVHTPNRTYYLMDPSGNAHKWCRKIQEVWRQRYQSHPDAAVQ
The target in assay [8] is Serine/threonine-protein kinase MRCK beta (Homo sapiens) (UniProt Q9Y5S2). The assay is described as follows: Residual activity of CDC42BPB at 10 uM by microplate scintillation counting.
Sequence of Serine/threonine-protein kinase MRCK beta (Homo sapiens) (Q9Y5S2 whole entry): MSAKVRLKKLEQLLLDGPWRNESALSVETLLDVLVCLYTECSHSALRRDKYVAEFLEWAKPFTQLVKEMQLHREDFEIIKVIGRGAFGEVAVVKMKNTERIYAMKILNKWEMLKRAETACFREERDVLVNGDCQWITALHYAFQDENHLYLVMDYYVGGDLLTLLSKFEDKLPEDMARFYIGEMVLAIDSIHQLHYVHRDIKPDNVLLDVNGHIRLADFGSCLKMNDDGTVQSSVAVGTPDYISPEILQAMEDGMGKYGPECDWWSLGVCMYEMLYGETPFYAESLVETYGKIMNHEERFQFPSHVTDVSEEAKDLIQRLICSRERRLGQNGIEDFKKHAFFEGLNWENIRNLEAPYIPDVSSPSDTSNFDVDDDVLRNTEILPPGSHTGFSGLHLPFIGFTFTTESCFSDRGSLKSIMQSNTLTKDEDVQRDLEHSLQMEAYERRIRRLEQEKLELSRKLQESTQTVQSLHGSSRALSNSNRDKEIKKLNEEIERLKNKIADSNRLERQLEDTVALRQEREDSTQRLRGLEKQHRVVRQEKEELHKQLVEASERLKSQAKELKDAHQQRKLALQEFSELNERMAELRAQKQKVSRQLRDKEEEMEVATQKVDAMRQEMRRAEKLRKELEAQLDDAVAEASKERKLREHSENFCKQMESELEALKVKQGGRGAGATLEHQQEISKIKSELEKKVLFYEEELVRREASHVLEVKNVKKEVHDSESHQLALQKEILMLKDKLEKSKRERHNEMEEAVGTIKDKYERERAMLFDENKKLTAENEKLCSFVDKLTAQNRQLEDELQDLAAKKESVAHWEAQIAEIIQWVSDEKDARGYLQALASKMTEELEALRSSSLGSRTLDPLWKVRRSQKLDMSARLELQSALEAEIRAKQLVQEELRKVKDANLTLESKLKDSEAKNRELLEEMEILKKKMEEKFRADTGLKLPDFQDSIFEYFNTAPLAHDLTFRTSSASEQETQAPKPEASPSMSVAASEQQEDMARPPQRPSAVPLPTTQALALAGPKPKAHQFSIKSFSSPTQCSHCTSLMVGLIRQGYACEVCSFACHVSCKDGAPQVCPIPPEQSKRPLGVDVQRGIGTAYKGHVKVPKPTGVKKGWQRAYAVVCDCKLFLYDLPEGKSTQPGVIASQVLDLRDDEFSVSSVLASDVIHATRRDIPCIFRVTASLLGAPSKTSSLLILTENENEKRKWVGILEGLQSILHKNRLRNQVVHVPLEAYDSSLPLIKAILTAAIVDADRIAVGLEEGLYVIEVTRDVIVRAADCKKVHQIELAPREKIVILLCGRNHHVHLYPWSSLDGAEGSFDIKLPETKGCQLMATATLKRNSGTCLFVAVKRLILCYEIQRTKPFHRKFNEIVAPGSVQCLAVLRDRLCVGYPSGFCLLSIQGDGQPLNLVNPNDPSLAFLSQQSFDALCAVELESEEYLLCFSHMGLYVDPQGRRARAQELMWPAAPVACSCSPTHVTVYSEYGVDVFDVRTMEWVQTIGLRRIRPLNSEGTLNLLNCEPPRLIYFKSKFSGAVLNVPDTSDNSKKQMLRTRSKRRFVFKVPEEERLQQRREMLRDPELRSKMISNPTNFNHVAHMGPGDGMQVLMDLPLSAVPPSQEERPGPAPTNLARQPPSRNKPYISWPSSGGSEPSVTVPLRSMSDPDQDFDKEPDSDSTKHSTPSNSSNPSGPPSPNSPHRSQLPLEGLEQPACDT
Assay [9] deals with Cyclin-dependent kinase 1/cyclin B1 (Homo sapiens) (UniProt P06493+P14635). The experiment in a line: Residual activity of CDK1/CyclinB1 at 0.1 uM by microplate scintillation counting. In kind it is protein-complex assay.
Sequence of Cyclin-dependent kinase 1/cyclin B1 (Homo sapiens) (P06493 whole entry, looked up): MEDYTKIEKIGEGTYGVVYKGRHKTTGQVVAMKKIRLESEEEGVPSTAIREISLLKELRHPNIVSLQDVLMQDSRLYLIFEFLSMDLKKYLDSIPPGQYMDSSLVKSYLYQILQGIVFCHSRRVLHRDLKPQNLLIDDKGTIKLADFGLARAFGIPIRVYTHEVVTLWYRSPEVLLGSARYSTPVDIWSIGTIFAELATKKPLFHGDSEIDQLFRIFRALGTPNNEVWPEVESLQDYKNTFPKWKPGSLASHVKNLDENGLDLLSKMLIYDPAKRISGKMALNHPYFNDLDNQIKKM
Sequence of Cyclin-dependent kinase 1/cyclin B1 (Homo sapiens) (P14635 whole entry, looked up): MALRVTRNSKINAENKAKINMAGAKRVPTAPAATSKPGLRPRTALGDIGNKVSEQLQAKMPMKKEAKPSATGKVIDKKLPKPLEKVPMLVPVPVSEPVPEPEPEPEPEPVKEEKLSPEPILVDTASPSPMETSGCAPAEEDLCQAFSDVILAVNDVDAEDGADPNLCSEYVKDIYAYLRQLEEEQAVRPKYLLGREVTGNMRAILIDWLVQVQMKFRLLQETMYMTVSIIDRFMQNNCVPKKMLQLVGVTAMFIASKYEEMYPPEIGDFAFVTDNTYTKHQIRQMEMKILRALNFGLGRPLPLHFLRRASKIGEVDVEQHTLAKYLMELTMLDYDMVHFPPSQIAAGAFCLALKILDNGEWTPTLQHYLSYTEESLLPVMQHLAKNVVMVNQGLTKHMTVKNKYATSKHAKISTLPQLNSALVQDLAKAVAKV
The target in assay [10] is T1, Protein kinase C zeta type (Homo sapiens) (UniProt Q05513).
T1 sequence (whole entry): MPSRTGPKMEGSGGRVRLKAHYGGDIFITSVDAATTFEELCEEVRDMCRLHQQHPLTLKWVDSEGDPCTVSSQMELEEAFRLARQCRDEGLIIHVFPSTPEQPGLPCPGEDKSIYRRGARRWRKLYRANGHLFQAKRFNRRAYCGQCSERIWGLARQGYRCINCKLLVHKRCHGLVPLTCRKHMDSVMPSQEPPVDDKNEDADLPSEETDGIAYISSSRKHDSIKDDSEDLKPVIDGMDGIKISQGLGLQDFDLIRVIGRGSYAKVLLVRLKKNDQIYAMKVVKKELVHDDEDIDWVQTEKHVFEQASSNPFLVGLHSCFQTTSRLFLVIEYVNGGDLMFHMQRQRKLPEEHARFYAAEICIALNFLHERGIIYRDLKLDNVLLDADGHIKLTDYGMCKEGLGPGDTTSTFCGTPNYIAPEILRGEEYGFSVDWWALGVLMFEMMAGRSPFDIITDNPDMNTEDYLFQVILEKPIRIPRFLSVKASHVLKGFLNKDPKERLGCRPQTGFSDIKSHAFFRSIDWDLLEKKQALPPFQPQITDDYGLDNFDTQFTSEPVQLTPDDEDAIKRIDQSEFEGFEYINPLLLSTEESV
The experiment in a line: Residual activity of PKCzeta at 10 uM by microplate scintillation counting.

Assay [11] has as its target T2, Dual specificity protein kinase TTK (Homo sapiens) (UniProt P33981).
T2 sequence (whole entry): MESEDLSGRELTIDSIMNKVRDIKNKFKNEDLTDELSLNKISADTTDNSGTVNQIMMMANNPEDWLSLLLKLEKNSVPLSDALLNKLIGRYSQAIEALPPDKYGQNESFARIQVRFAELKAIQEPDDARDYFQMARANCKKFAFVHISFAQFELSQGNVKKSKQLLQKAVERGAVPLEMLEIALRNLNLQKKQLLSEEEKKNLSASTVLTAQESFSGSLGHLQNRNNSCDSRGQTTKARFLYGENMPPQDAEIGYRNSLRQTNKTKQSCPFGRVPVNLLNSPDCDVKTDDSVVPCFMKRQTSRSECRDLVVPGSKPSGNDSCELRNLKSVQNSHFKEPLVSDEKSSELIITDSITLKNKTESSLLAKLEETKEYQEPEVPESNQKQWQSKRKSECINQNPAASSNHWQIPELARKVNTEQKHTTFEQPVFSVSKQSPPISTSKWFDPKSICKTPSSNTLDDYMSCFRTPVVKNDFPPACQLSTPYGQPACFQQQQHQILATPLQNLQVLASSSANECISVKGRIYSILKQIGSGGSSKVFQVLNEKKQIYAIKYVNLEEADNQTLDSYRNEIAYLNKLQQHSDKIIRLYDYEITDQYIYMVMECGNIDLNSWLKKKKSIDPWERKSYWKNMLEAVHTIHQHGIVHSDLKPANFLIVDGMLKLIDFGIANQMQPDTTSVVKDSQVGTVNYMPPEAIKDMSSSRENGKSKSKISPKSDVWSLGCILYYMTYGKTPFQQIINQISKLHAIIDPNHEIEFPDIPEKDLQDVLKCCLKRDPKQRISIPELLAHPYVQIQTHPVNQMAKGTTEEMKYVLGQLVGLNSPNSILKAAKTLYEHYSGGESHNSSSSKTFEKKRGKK
The assay is described as follows: Residual activity of TTK at 10 uM by microplate scintillation counting.

The target in assay [12] is T3, Serine/threonine-protein kinase D2 (Homo sapiens) (UniProt Q9BZL6).
T3 sequence (whole entry): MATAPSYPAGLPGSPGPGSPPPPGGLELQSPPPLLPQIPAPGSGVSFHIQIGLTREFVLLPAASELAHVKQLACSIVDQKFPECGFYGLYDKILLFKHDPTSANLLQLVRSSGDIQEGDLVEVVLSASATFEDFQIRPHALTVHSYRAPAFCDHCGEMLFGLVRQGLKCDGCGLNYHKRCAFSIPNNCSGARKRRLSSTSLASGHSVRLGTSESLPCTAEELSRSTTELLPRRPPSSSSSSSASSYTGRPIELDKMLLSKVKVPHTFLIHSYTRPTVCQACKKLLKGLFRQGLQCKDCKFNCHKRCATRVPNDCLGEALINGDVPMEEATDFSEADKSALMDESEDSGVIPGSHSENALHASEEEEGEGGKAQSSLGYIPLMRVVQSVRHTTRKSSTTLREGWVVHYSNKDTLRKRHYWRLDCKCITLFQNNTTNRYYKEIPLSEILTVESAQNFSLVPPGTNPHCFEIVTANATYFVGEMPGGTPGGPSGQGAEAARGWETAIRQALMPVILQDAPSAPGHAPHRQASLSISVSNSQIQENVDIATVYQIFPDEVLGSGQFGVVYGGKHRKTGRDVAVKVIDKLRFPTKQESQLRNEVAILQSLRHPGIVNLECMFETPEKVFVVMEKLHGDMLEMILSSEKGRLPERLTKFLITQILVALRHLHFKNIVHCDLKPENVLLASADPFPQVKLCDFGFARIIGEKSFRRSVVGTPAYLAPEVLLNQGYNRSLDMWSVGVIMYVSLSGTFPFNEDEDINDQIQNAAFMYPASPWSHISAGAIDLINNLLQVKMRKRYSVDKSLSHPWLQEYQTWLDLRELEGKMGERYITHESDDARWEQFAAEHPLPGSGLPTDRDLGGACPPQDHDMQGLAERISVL
The assay is described as follows: Residual activity of PRKD2 at 10 uM by microplate scintillation counting.

Sequence of Receptor-interacting serine/threonine-protein kinase 2 (Homo sapiens) (O43353 whole entry): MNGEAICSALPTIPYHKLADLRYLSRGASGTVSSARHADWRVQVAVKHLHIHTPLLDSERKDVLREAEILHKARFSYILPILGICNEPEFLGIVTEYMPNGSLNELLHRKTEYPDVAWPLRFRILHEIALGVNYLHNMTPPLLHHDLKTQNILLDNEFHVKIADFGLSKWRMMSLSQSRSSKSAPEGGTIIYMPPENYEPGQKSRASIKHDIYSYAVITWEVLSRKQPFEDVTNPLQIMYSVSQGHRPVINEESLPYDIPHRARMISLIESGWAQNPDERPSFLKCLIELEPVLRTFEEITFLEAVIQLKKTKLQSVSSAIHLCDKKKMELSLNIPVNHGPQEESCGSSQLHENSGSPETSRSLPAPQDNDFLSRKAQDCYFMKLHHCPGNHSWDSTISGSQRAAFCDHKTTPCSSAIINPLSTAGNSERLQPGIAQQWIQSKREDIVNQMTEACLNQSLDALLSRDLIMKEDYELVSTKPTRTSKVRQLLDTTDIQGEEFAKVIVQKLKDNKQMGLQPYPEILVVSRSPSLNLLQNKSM
Sequence of Ephrin type-A receptor 4 (Homo sapiens) (P54764 whole entry): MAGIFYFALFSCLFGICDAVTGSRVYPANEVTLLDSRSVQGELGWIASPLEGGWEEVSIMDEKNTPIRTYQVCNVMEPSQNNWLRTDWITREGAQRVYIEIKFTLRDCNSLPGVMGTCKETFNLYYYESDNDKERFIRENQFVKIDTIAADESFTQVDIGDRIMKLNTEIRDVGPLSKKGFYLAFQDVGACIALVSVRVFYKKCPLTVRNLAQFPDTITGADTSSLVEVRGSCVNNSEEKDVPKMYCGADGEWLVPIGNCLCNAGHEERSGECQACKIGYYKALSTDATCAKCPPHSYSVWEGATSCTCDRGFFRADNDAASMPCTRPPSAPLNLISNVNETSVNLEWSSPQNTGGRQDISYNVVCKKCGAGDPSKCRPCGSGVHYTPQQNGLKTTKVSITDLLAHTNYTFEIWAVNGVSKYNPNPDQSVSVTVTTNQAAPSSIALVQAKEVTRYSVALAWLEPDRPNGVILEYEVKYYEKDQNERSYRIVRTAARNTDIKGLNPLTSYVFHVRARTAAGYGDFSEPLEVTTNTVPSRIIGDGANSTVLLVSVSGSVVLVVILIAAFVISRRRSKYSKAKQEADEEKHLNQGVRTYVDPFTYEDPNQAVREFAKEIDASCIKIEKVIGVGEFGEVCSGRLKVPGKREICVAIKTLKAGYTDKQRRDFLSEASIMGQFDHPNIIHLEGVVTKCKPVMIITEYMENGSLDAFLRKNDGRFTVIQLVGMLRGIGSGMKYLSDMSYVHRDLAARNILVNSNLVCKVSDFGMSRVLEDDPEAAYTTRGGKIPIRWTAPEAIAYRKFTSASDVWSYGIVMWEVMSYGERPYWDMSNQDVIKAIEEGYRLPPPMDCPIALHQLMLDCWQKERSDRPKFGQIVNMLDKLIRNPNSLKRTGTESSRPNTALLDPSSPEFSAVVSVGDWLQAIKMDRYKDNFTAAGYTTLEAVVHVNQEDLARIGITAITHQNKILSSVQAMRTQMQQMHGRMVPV

On to `COc1cc2c(Oc3ccc(-c4nc5ccccc5s4)cc3F)ncnc2cc1OCCCN1CCN(C)CC1`, for which the residual activity in [1] was 102%; in [2] it was 93%; in assay [3] it was 132%; in [4], 88%; in assay [5] it was 76%; in assay [6] it was 72%. In addition, the residual activity in [7] was found to be 97%; in assay [8] it was 102%; in assay [9], 87%; in [10] it was 74%; in assay [11] it was 70%; in assay [12] it was 128%.

As to `COc1cc2c(Oc3ccc(-c4nc5ccccc5s4)cc3)ncnc2cc1OCCCN1CCN(C)CC1`, the residual activity came to 96% in assay [1]; 103% in assay [2]; 188% in assay [3]; 88% in [4]; 78% in assay [5]; 78% in assay [6]. Besides, the residual activity in assay [7] was 95%; in [8], 110%; in assay [9], 90%; in assay [10], 72%; in assay [11], 69%; in assay [12] it was 146%.

Take `COc1cc2c(Oc3ccc(-c4nc5ccccc5s4)cc3)ncnc2cc1OCCCN1CCCC1`: the residual activity in [1] stood at 100%; in assay [2], 93%; in assay [3], 166%; in assay [4], 85%; in [5] it was 83%; in [6], 79%. Also, the residual activity in assay [7] was determined as 95%; in [8], 82%; in [9] it was 84%; in assay [10], 64%; in assay [11], 84%; in [12], 136%.

The values are drawn from ChEMBL document CHEMBL1152560, “Substituted 2-arylbenzothiazoles as kinase inhibitors: hit-to-lead optimization” (Bioorg Med Chem, 2009).
